Measured values published in the supplement of paper PMC10307832.

What was measured:
Assay in all cases: relative viability (nuclei count vs DMSO), 5 days (fraction); higher = more cells survive
[1] = compound: CC[C@H](Nc1ncnc2[nH]cnc12)c1nc2cccc(F)c2c(=O)n1-c1ccccc1 [Idelalisib]
Procedure, shortened: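 Following overnight incubation at 37 °C, lung cancer cell lines in 1536-well plates were pinned with five library-drug doses (not always all listed) in √10 steps on vehicle-anchored plates. The cells then spent 5 days without medium change before a combined fix, permeabilisation and Hoechst stain, 4× imaging and MetaXpress nuclear counts. Viability is the treated-to-vehicle ratio of nuclei, taken as the median across plates. Only plates with control CV below 25% and at least one doubling passed.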

[2] = compound: CC[C@H](Nc1ncnc2[nH]cnc12)c1nc2cccc(F)c2c(=O)n1-c1ccccc1 [Idelalisib] + Nc1nc2[nH]cc(CCc3ccc(C(=O)N[C@@H](CCC(=O)O)C(=O)O)cc3)c2c(=O)[nH]1 [Pemetrexed] (partner 0.2 µM)
Procedure, shortened: (§1)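 Nuclei were stained with Hoechst during a one-step fixation (final 0.05% Triton X-100, 1% formaldehyde, 1 ug/ml Hoechst) carried out 5 days after dosing, then counted on 4× images. The cells, lung cancer lines in 1536-well plates, had been dosed by pin tool the day after seeding with one drug alone or a fixed anchor-drug dose plus five library-drug doses (not always all listed) in √10 steps. Relative viability is the nuclei count in treated wells divided by that in vehicle wells, and each value is the median of duplicate plates.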

[3] = compound: Nc1nc2[nH]cc(CCc3ccc(C(=O)N[C@@H](CCC(=O)O)C(=O)O)cc3)c2c(=O)[nH]1 [Pemetrexed] + COc1cccc2cc(-c3nc([C@H]4CC[C@H](C(=O)O)CC4)n4ncnc(N)c34)[nH]c12 [OSI-027] (partner 0.5 µM)
Procedure, shortened: as §1

[4] = compound: CC[C@H](Nc1ncnc2[nH]cnc12)c1nc2cccc(F)c2c(=O)n1-c1ccccc1 [Idelalisib] + CCNC(=O)c1noc(-c2cc(C(C)C)c(O)cc2O)c1-c1ccc(CN2CCOCC2)cc1 [Luminespib] (partner 0.01 µM)
Procedure, shortened: as §1

| Cell Line | relative viability ([1]; 0.04 µM) | relative viability ([1]; 0.1265 µM) | relative viability ([1]; 0.4 µM) | relative viability ([1]; 1.265 µM) | relative viability ([1]; 4 µM) | relative viability ([2]; first compound 0.04 µM) | relative viability ([2]; first compound 0.1265 µM) | relative viability ([2]; first compound 0.4 µM) | relative viability ([2]; first compound 1.265 µM) | relative viability ([2]; first compound 4 µM) | relative viability ([3]; first compound 0.002 µM) | relative viability ([3]; first compound 0.006325 µM) | relative viability ([3]; first compound 0.02 µM) | relative viability ([3]; first compound 0.06325 µM) | relative viability ([3]; first compound 0.2 µM) | relative viability ([4]; first compound 0.04 µM) | relative viability ([4]; first compound 0.1265 µM) | relative viability ([4]; first compound 0.4 µM) | relative viability ([4]; first compound 1.265 µM) | relative viability ([4]; first compound 4 µM) |
| --- | --- | --- | --- | --- | --- | --- | --- | --- | --- | --- | --- | --- | --- | --- | --- | --- | --- | --- | --- | --- |
| ChaGo-K-1 | 1.09 | 0.914 | 0.946 | 1.02 | 0.992 | 0.254 | 0.252 | 0.268 | 0.254 | 0.264 | 0.572 | 0.59 | 0.61 | 0.317 | 0.23 | 0.558 | 0.632 | 0.516 | 0.523 | 0.537 |
| EBC-1 | 1 | 1.1 | 0.986 | 0.965 | 0.88 | – | – | – | – | – | – | – | – | – | – | – | – | – | – | – |
| EKVX | 0.925 | 1.01 | 0.849 | 0.854 | 0.8 | 0.407 | 0.387 | 0.377 | 0.386 | 0.395 | 0.673 | 0.678 | 0.693 | 0.706 | 0.611 | 0.703 | 0.916 | 0.723 | 0.804 | 0.814 |
| EMC-BAC-2 | 1.25 | 0.989 | 0.878 | 1.01 | 1.11 | 0.484 | 0.44 | 0.477 | 0.435 | 0.43 | 0.352 | 0.338 | 0.4 | 0.372 | 0.363 | 1.34 | 1.24 | 1.03 | 1.25 | 1.13 |
| EPLC-272H | 1.07 | 0.9 | 0.815 | 0.902 | 0.873 | 0.303 | 0.386 | 0.317 | 0.23 | 0.347 | 0.268 | 0.257 | 0.343 | 0.302 | 0.265 | 0.521 | 0.291 | 0.309 | 0.265 | 0.325 |
| H3255 | 1.06 | 0.946 | 0.925 | 0.959 | 0.879 | 0.692 | 0.551 | 0.55 | 0.561 | 0.488 | 0.542 | 0.55 | 0.598 | 0.659 | 0.585 | 1.13 | 0.786 | 0.78 | 0.882 | 0.878 |
| HARA | 1.02 | 1.05 | 0.783 | 1.23 | 0.794 | 0.24 | 0.243 | – | 0.222 | 0.247 | 0.407 | 0.533 | 0.53 | 0.487 | 0.186 | 0.778 | 0.642 | 0.613 | 0.683 | 0.6 |
| HCC-15 | 1.12 | 1.04 | 0.914 | 1.13 | 1.02 | 0.242 | 0.22 | 0.213 | 0.22 | 0.221 | 0.592 | 0.668 | 0.76 | 0.501 | 0.203 | 0.185 | 0.242 | 0.286 | 0.26 | 0.404 |
| HCC-44 | 1.04 | 0.953 | 0.98 | 1.08 | 1.13 | 0.684 | 0.664 | 0.652 | 0.586 | 0.687 | 0.489 | 0.623 | 0.631 | 0.484 | 0.444 | 1.25 | 1.06 | 0.852 | 1.18 | 1.05 |
